Assay results published in patent publication US20150315241A1, “Antibiotic Peptides” (priority 2007, published 2015).

Tested on: human erythrocytes
Test: Hemolytic assay
Format: cell-based
Settings: 1 h 37° C., relative to 0.1% Triton X-100, peptide concentration 600 μg/mL
Method: To determine whether the peptides and peptide derivatives according to the invention were toxic to mammalian cells, several peptides and peptidomimetics from Example 1 above, a positive control, and a negative control were examined for hemolytic activity. The hemolytic activity was assayed with human erythrocytes. A human erythrocyte concentrate was provided in sodium chloride […]-glucose-mannitol buffer from the Leipzig University Hospital (Leipzig, Germany). The erythrocytes were centrifuged at 1000 G and washed three times with 10 volumes of cold phosphate-buffered saline (PBS, pH 7.4). The erythrocytes were diluted to a final concentration of 1% in PBS. One hundred microliters of this human erythrocyte suspension in PBS was added to each well of a V-shaped 96-well polypropylene microtiter plate (Greiner Bio-One GmbH). […] The microtiter plate was incubated at 37° C. for 1 h and subsequently centrifuged for 10 min at 1000 G. One hundred microliters of the supernatant was transferred to a 96-well flat-bottomed polystyrene microtiter plate (Greiner Bio-One GmbH) and the absorption at 405 nm recorded in a micro plate spectrophotometer (Tecan) to evaluate the heme release. […] The hemolysis percentage was calculated by the following equation[44]: ([…])×100% with E=Extinction at 405 nm All hemolytic assays were performed in duplicates. […]

“(p-tert-Octylphenoxy)polyethoxyethanol [Triton X-100 ®]” showed a Haemolysis rate of 100%.
